One compound from patent US20130338061A1, “Salts and Polymorphs of Sulfamide NS3 Inhibitors” (priority 2010, published 2013) can be followed below.

The test system of assay [1] is subgenomic genotype 1b HCV replicon cell line (Huh-Luc/neo-ET). Briefly: Luciferase-based HCV replicon assay. The settings on record: Hepatitis C virus; Huh-Luc/neo-ET replicon cells, 48-h treatment, 10% FBS; read-out: IC50 in replicon assay (luciferase activity reduced by 50%). It is filed as cell-based. On the procedure:
The antiviral activity and cytotoxicity of Compound X is determined using a subgenomic genotype 1b HCV replicon cell line (Huh-Luc/neo-ET) containing a luciferase reporter gene, the expression of which is under the control of HCV RNA replication and translation. Briefly, 5,000 replicon cells are seeded in each well of 96-well tissue culture plates and are allowed to attach in complete culture media without G418 overnight. On the next day, the culture media are replaced with media containing serially diluted Compound X in the presence of 10% FBS and 0.5% DMSO. After a 48-h treatment with the compound, the remaining luciferase activities in the cells are determined using BriteLite reagent (Perkin Elmer, Wellesley, Mass.) with a LMaxII plate reader (Molecular Probe, Invitrogen). Each data point represents the average of four replicates in cell culture. IC50 is the concentration of the compound at which the luciferase activity in the replicon cells is reduced by 50%. The cytotoxicity of the compound is evaluated using an MTS-based cell viability assay.

The target in assay [2] is HCV NS3-4A serine protease (full-length NS3-4A protein, genotype 1a, strain HCV-1) (Hepatitis C virus genotype 1a, UniProt P26664). Briefly: HCV NS3-4A protease assay. As to conditions: fluorogenic peptide substrate. It is filed as biochemical. The method, then: The inhibitory activity of Compound X against HCV NS3-4A serine protease is determined in a homogenous assay using the full-length NS3-4A protein (genotype 1a, strain HCV-1) and a commercially available internally-quenched fluorogenic peptide substrate as described by Taliani, M., et al. 1996 Anal. Biochem. 240:60-67, which is incorporated by reference in its entirety.

Where only a bound is given, the exact number is not on record here.

Chain of HCV NS3-4A serine protease (full-length NS3-4A protein, genotype 1a, strain HCV-1) (P26664 1658-1711): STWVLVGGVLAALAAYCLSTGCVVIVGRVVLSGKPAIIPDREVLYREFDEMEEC
Chain of HCV NS3-4A serine protease (full-length NS3-4A protein, genotype 1a, strain HCV-1) (P26664 1027-1657): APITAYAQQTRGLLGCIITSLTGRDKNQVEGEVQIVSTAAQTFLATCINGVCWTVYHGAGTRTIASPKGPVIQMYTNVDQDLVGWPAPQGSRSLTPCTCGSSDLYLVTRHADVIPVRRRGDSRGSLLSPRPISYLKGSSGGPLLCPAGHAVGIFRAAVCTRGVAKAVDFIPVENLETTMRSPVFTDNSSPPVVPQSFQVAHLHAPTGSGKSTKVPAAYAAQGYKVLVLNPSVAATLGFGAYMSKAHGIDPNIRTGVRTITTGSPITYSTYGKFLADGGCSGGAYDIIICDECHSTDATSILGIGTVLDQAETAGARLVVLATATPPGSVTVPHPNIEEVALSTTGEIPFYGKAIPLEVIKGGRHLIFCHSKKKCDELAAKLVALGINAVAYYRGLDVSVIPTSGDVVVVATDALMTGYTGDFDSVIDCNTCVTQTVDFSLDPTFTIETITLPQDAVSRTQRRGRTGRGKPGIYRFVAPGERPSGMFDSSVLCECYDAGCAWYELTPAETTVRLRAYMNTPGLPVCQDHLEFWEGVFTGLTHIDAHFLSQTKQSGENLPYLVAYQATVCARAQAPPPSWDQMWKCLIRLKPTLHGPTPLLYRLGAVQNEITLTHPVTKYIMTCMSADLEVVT

With `CC[C@@H]1C[C@]1(NC(=O)[C@@H]1C[C@@]2(CN1C(=O)[C@@H](NC(=O)[C@@H](NC(=O)[C@@H]1CCCCN1C(C)C)C1CCCCC1)C(C)(C)C)C(C)(C)C21CCC1)C(=O)NS(=O)(=O)N1CCCC1` [Compound X, (5R,8S)-7-[(2S)-2-{[(2S)-2-cyclohexyl-2-({[(2S)-1-isopropylpiperidin-2-yl]carbonyl}amino)acetyl]amino}-3,3-dimethylbutanoyl]-N-{(1R,2R)-2-ethyl-1-[(pyrrolidin-1-ylsulfonyl)carbamoyl]cyclopropyl}-10,10-dimethyl-7-azadispiro[3.0.4.1]decane-8-carboxamide], the IC50 in assay [1] was < 100 nM; in assay [2], 4.5 nM.
